Laboratory results reported in PMC6812656 (Cancer cell, 2019).

Assays:
[1] = test system: HDAC, DOTL1, BRD, LSD1 and Jumonji domain-containing histone demethylases; assay: Inhibition of epigenetic enzymes in vitro; assay type: biochemical
[2] = test system: human normal bone marrow (BM) cells; assay: Proliferation of normal bone marrow cells; assay type: cell-based; conditions: BM cells from a healthy donor
[3] = biological target: T1, ALKBH5 (Homo sapiens, UniProt Q6P6C2); assay: DARTS assay for ALKBH5 in AML cell lysates; assay type: binding
Target sequence in this assay (Q6P6C2 whole entry): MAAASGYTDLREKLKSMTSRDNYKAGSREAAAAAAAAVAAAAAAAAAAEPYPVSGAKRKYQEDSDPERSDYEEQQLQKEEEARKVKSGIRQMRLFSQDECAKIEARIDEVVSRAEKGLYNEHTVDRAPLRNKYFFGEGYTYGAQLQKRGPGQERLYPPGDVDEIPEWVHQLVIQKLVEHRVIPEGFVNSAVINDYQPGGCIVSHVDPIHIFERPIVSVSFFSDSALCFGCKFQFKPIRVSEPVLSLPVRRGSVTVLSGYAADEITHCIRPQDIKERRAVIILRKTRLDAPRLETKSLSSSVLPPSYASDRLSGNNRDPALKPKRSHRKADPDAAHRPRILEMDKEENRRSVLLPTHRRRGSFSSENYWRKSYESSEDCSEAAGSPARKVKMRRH

[4] = test system: oncogenic proteases; assay: Protease profiling; assay type: biochemical, human; conditions: 1 μM or 10 μM
[5] = Microsomal stability assay; assay type: in vitro ADME; conditions: SD, rat, liver microsomes
[6] = biological target: T2, FTO (Homo sapiens, UniProt Q9C0B1); assay: DARTS assay for FTO in AML cell lysates; assay type: binding; conditions: 50, 200, 500 μM
Target sequence in this assay (Q9C0B1 whole entry): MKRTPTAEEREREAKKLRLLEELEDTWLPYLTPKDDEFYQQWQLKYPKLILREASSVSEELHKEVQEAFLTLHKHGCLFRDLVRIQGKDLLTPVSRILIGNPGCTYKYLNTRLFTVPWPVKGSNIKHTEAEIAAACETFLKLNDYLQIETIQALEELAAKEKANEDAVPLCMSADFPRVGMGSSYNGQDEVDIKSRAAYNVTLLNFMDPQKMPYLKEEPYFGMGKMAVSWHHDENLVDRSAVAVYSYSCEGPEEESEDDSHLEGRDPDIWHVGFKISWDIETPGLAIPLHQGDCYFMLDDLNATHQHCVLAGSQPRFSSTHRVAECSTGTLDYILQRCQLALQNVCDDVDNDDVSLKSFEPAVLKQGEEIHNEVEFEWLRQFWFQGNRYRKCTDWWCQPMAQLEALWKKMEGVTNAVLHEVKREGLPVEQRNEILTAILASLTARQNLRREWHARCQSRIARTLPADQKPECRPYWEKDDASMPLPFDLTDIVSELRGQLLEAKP

[7] = test system: m6A peaks in mRNA of MONOMAC6 AML cells; assay: m6A-seq in MONOMAC6 cells; assay type: cell-based, human; conditions: 5 μM, 72 hr, peaks identified in both DMSO and treated groups
[8] = biological target: T3, COX-1 (Ovis aries, UniProt P05979); assay: COX fluorescent inhibitor screening assay, COX-1; assay type: biochemical; conditions: even at 50 μM
T3 sequence (P05979 25-600): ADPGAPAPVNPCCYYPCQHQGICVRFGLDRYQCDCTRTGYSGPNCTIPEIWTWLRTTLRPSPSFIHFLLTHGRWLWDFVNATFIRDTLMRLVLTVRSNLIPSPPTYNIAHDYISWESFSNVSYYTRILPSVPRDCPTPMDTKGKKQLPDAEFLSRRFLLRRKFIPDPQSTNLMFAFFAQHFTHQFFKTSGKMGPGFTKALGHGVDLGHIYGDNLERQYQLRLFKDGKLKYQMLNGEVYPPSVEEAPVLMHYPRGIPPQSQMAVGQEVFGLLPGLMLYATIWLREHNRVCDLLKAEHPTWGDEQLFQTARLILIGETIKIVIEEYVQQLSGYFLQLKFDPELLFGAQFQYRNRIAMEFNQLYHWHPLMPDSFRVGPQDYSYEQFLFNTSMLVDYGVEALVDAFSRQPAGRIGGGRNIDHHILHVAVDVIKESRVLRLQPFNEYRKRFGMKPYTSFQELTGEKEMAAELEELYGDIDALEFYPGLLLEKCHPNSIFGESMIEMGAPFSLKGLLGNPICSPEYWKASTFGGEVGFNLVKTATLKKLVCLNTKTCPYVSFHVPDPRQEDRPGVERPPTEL

[9] = biological target: T4, TET1 protein (Homo sapiens, UniProt Q8NFU7); assay: TET1 enzyme activity in vitro; assay type: biochemical; conditions: 20 μM
T4 sequence (Q8NFU7 1418-2136 limits assumed): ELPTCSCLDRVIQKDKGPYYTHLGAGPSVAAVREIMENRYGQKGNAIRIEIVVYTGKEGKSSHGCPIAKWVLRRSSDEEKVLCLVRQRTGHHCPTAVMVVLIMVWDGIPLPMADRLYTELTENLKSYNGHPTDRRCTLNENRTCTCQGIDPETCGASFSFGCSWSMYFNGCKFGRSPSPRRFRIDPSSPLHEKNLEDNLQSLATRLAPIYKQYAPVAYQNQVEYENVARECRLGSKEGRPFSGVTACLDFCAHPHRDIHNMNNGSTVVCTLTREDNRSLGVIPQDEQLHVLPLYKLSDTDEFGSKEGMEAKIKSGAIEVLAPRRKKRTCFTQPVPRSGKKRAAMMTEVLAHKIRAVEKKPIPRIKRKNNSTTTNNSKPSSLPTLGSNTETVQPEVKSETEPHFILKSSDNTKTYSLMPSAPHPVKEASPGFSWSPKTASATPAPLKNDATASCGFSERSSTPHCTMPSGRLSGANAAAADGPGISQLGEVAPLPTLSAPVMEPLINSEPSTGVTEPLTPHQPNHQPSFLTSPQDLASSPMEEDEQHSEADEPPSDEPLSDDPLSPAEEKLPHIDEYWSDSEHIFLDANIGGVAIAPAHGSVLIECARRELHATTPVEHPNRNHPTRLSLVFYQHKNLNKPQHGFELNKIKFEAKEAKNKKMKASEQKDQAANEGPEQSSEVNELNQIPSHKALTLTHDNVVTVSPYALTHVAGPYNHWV

[10] = biological target: T5, COX-2 (Homo sapiens, UniProt P35354); assay: COX fluorescent inhibitor screening assay, COX-2; assay type: biochemical; conditions: even at 50 μM
T5 sequence (P35354 18-604): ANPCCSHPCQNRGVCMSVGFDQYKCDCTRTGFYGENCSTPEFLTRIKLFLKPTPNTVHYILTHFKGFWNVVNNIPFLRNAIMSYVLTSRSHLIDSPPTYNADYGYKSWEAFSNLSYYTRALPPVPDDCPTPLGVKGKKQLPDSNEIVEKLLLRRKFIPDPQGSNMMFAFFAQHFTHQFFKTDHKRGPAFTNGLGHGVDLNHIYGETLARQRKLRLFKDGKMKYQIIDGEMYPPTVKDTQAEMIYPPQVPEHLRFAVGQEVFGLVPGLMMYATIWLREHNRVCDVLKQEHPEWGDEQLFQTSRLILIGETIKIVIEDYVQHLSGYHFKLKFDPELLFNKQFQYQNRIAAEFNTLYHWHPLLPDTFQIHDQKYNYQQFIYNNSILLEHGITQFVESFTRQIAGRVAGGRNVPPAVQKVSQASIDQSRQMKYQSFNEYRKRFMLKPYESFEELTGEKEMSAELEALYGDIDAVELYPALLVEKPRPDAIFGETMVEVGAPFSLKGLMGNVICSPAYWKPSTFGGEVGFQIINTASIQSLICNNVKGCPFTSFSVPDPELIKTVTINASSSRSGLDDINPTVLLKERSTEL

[11] = test system: NB4 and MONOMAC6 cells; assay: Cell proliferation assay, NB4 and MONOMAC6; assay type: cell-based; conditions: Homo sapiens, MONO-MAC-6, 72 h, read-out: IC50, anti-proliferative activity
[12] = test system: primary AML cells (patient Pt 2017_63); assay: PDX AML mouse model; conditions: 6 mg/kg/day i.p. for 17 days
[13] = Pharmacokinetics in SD rats; assay type: in vivo; conditions: male, Sprague Dawley, rat, plasma, ip, 3 mg/kg
[14] = test system: functional primary AML LSCs; assay: Secondary transplantation of PDX AML cells; conditions: AML cells from primary FB23-2-treated PDX mice
[15] = test system: MA9.3ITD, MA9.3RAS, U937, ML-2 and MV4-11 AML cell lines; assay: Cell proliferation assay, panel of additional AML cell lines; assay type: cell-based; conditions: Homo sapiens, 96 h, read-out: IC50, proliferation
[16] = biological target: T1, ALKBH5; assay: HPLC-based assay of inhibition of ALKBH5 m6A demethylation in RNA; assay type: biochemical
Target sequence in this assay (Q6P6C2 67-394 limits assumed): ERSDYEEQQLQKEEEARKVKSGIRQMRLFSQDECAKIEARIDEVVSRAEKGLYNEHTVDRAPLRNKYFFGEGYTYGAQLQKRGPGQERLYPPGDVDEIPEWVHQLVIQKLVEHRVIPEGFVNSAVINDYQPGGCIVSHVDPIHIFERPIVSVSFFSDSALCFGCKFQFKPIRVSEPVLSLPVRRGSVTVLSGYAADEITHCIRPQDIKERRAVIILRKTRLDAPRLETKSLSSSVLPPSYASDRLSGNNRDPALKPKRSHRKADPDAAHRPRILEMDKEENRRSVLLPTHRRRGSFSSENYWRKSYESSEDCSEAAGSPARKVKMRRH

[17] = test system: MONOMAC6 AML cells; assay: MONOMAC6 xeno-transplantation leukemic model; assay type: in vivo, NSGS mice; conditions: 2 mg/kg i.p. daily for 10 days, from 10 days post xeno-transplantation
[18] = test system: human primary AML cells; assay: Cell proliferation assay, primary AML cells from four patients; assay type: cell-based; conditions: 96 h, read-out: IC50, proliferation of primary AML cells
[19] = Toxicity study in BALB/c mice; assay type: in vivo; conditions: 20 mg/kg i.p. daily for 14 days
[20] = biological target: T2, FTO; assay: HPLC-based assay of inhibition of FTO m6A demethylation in RNA; assay type: biochemical; conditions: HPLC quantification
Target sequence in this assay (Q9C0B1 32-505 limits assumed): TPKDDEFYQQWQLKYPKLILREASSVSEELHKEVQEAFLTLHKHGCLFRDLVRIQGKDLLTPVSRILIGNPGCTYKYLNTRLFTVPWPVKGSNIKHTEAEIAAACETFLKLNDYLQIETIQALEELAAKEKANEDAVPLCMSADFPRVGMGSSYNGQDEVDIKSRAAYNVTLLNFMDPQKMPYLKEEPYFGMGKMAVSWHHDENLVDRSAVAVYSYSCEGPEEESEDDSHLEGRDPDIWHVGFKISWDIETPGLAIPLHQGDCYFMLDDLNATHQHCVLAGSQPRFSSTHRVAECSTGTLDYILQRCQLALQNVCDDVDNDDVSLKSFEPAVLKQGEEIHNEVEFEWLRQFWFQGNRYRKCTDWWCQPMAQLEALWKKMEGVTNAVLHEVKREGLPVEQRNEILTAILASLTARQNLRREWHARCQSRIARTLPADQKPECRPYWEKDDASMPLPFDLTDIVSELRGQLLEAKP

[21] = test system: NB4 cells; assay: Cell proliferation assay, NB4; assay type: cell-based; conditions: Homo sapiens, NB-4, 72 h, read-out: IC50, proliferation
[22] = test system: MONOMAC6 cells; assay: Cell proliferation assay, MONOMAC6; assay type: cell-based; conditions: Homo sapiens, MONO-MAC-6, 72 h, read-out: IC50, proliferation
[23] = test system: NB4 cells; assay: Cellular uptake by LC-MS/MS quantitation, NB4; assay type: cell-based, human; conditions: 10 μM for 24 hr
[24] = test system: MONOMAC6 cells; assay: Cellular uptake by LC-MS/MS quantitation, MONOMAC6; assay type: cell-based, human; conditions: 10 μM for 24 hr

Q: Which “effect on activities of epigenetic targets in vitro” value [1] does the source give for `Cc1noc(C)c1-c1cc(Cl)c(Nc2ccccc2C(=O)NO)c(Cl)c1` [FB23-2, 2-((2,6-dichloro-4-(3,5-dimethylisoxazol-4-yl)phenyl)amino)-N-hydroxybenzamide] here?
A: Its value is “slightly attenuated”.

Q: What about the “effect on proliferation of normal BM cells” value [2] of the same compound?
A: The value was “minimally altered proliferation”.

Q: What about the “direct binding to ALKBH5 (DARTS)” value [3] of the same compound?
A: The value was “could not directly bind”.

Q: What about the “inhibition of oncogenic proteases” value [4] of the same compound?
A: Its value is “barely inhibited”.

Q: And the CLint scaled at 3 μM [5]?
A: Its CLint scaled at 3 μM is 19.7 mL/min/kg.

Q: And the half-life at 3 μM [5]?
A: Its half-life at 3 μM is 2.13 h.

Q: What about the “protease resistance of FTO protein (DARTS)” value [6] of the same compound?
A: Its value is “protease-resistant”.

Q: What about the “share of m6A peaks increased upon treatment” value [7] of the same compound?
A: The value was 62.1%.

Q: And the “inhibition of COX-1” value [8]?
A: The value was “neither FB23 nor FB23-2 was observed to significantly inhibit”.

Q: And the “inhibition of TET1 protein in vitro” value [9]?
A: The value was “minimally inhibited”.

Q: What about the “inhibition of COX-2” value [10] of the same compound?
A: Its value is “neither FB23 nor FB23-2 was observed to significantly inhibit”.

Q: And the IC50 [11]?
A: The IC50 was 0.8 to 1.5 µM.

Q: And the median survival time [12]?
A: Its median survival time is 58 days.

Q: And the AUC(0-t) [13]?
A: The AUC(0-t) was 2180 ± 152 ng·h/mL.

Q: And the Cmax [13]?
A: The Cmax was 2420 ± 90.9 ng/mL.

Q: And the Tmax [13]?
A: The Tmax was 4.8 min.

Q: And the half-life [13]?
A: Its half-life is 6.7 ± 1.3 h.

Q: What about the “secondary PDX mice still surviving after 100 days” value [14] of the same compound?
A: The value was 50%.

Q: And the IC50 [15]?
A: Its IC50 is 1.9 to 5.2 µM.

Q: And the “inhibition of ALKBH5 demethylation in vitro” value [16]?
A: Its value is “neither FB23 nor FB23-2 inhibits”.

Q: What about the “survival of leukemic mice” value [17] of the same compound?
A: The value was “almost doubling the median survival”.

Q: And the IC50 [18]?
A: The IC50 was 1.6 to 16 µM.

Q: And the body weight loss [19]?
A: The body weight loss was “no evidence of body weight loss”.

Q: And the “hematopoiesis (hematology and plasma biochemistry) vs vehicle” value [19]?
A: Its value is “no significant difference”.

Q: And the “physical damage on organs” value [19]?
A: Its value is “nor was any physical damage observed”.

Q: What about the “inhibitory activity on FTO demethylation in vitro” value [20] of the same compound?
A: Its value is “maintains inhibitory activity”.

Q: With `Cc1noc(C)c1-c1cc(Cl)c(Nc2ccccc2C(=O)O)c(Cl)c1` [FB23, 2-((2,6-dichloro-4-(3,5-dimethylisoxazol-4-yl)phenyl)amino)benzoic acid] as the compound, how does the “effect on activities of epigenetic targets in vitro” value [1] read?
A: The value was “slightly attenuated”.

Q: And the IC50 [21]?
A: Its IC50 is 44.8 µM.

Q: What about the IC50 [22] of the same compound?
A: The IC50 was 23.6 µM.

Q: And the “inhibition of COX-1” value [8]?
A: Its value is “neither FB23 nor FB23-2 was observed to significantly inhibit”.

Q: What about the “inhibition of COX-2” value [10] of the same compound?
A: Its value is “neither FB23 nor FB23-2 was observed to significantly inhibit”.

Q: And the intracellular concentration [23]?
A: The intracellular concentration was 0.02 nmol/million.

Q: And the intracellular concentration [24]?
A: The intracellular concentration was 0.015 nmol/million.

Q: What about the “inhibition of ALKBH5 demethylation in vitro” value [16] of the same compound?
A: The value was “neither FB23 nor FB23-2 inhibits”.
